According to PubChem BioAssay AID2060485 (Molecular Pharmacology Branch, DTP, NCI, 2025):

Tested on: A375 multi-cell spheroids with HUVEC/MSC, viability
Experiment: Anticancer human tumor A375 cell line growth inhibition [GQUAD];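 note: spheroids exposed to compounds for seven days before readout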
Conditions: for IC50: curve of first compound; for viability, T/C: stronger effect = lower value
Description: DNA G-quadruplex Stabilizer Agents in Combinations in Complex Spheroids
A high-throughput screen of multi-cell type tumor spheroids was designed to identify active combinations of DNA G-quadruplex stabilizer agents and targeted small molecules. Complex spheroids include a stromal component modeled by human endothelial cells (HUVEC) and fibroblasts modeled by human mesenchymal stem cells (MSCs). The concentration ranges selected for each drug and investigational agent were based upon clinically achievable concentrations if the clinical Cmax of the agent was known.
Compounds. The drugs and investigational agents: pidnarulex (CX-5461; NSC782164), APTO-253 (NSC789042), BRACO-19 (NSC847499), peposertib (NSC802822), ceralasertib (NSC780249), elimusertib (NSC800525), camonsertib (NSC841442), AZD-1390 (NSC803789), olaparib (NSC753686), talazoparib (NSC767125), ART-558 (NSC835418), sotorasib (NSC818433), MRTX-1133 (NSC836407), SN-38 (NSC673596), topotecan (NSC609699), etoposide (NSC141540), doxorubicin (NSC123127), gemcitabine (NSC613327), 5-fluorouracil (NSC19893), paclitaxel (NSC125973), vemurafenib (NSC761431), panobinostat (NSC761190), R-306465 (JNJ-16241199; NSC773264), adavosertib (NSC754352), TP-3654 (NSC805149), carboplatin (NSC241240), KSQ-4279 (NSC840948), and staurosporine (NSC755774) were obtained from the National Cancer Institute (NCI) Developmental Therapeutics Program Chemical Repository (34). The FDA-approved anticancer drug set is available from the NCI Developmental Therapeutics Program. […] The stock solutions were prepared in dimethyl sulfoxide (DMSO, Sigma-Aldrich, St. Louis, MO, cat. D2650) at 800-fold the tested concentration and stored at -70 degrees C prior to their use. All drugs and investigational agents were tested over a range starting from a high concentration at or near the clinical Cmax and decreasing in half-log increments. If the clinical Cmax for an agent had not been determined, the highest concentration tested was 10 microM.
2.3 Cell Culture. All cells were maintained in an incubator at 37 degrees C and 5% CO2 with 95% humidity. The PDC lines were cultured according to standard operating procedures established by the NCI PDMR. All PDCs were thawed and cultured in Matrigel-coated flasks prepared with a working solution of 1X Ham's F-12 nutrient mix, without supplementation (Invitrogen, cat. 11765054), 100 U/mL penicillin-streptomycin (Invitrogen, cat. 15140122), and 2.5% Matrigel (Corning Inc., cat. 354248) for the first three passages. The 857933-349-R-J2-PDC line was cultured in 6C/Colon 1B media, which includes advanced DMEM/F-12 (Thermo Fisher Scientific, cat. 12634028), 10 mM HEPES (Thermo Fisher Scientific, cat. 15630080), 1X GlutaMAX supplement (Thermo Fisher Scientific, cat. 35050061), 0.1 mg/mL primocin (InvivoGen, cat. ant-pm-2), 10% defined fetal bovine serum, heat inactivated (HyClone Laboratories Inc., cat. SH30070.03HI), 50% L-WRN conditioned media (ATCC, cat. CRL-3276), 1.25 mM N-Acetyl-L-cysteine (Sigma-Aldrich, cat. A9165), 10 mM nicotinamide (Sigma-Aldrich, cat. N0636), 1X B-27 supplement (Thermo Fisher Scientific, cat. 17504044), 1X N-2 supplement (Thermo Fisher Scientific, cat. 17502048), 10 microM Y-27632 dihydrochloride (Tocris Bioscience, cat. 1254), and 50 ng/mL human EGF recombinant protein (Thermo Fisher Scientific, cat. PHG0311). The 485176-168-R4-J1-PDC line was cultured in Panc media, which includes all 6C/Colon 1B media components plus 100 ng/mL human FGF-10 (Thermo Fisher Scientific, cat. 100-26), 500 nM SB-431542 (Selleckchem, cat. S1067), and gastrin (Tocris, cat. 3006).
[…]

[1] = second compound 0.0316 µM, first compound 0.0316 µM
[2] = second compound 0.0316 µM, first compound 0.1 µM
[3] = second compound 0.0316 µM, first compound 0.316 µM
[4] = second compound 0.0316 µM, first compound 1 µM
[5] = second compound 0.0316 µM, first compound 3.16 µM
[6] = second compound 0.0316 µM, first compound 10 µM
[7] = second compound 0.1 µM, first compound 0.0316 µM
[8] = second compound 0.1 µM, first compound 0.1 µM
[9] = second compound 0.1 µM, first compound 0.316 µM
[10] = second compound 0.1 µM, first compound 1 µM
[11] = second compound 0.1 µM, first compound 3.16 µM
[12] = second compound 0.1 µM, first compound 10 µM
[13] = second compound 0.316 µM, first compound 0.0316 µM
[14] = second compound 0.316 µM, first compound 0.1 µM
[15] = second compound 0.316 µM, first compound 0.316 µM
[16] = second compound 0.316 µM, first compound 1 µM
[17] = second compound 0.316 µM, first compound 3.16 µM
[18] = second compound 0.316 µM, first compound 10 µM
[19] = second compound 1 µM, first compound 0.0316 µM
[20] = second compound 1 µM, first compound 0.1 µM
[21] = second compound 1 µM, first compound 0.316 µM
[22] = second compound 1 µM, first compound 1 µM
[23] = second compound 1 µM, first compound 3.16 µM
[24] = second compound 1 µM, first compound 10 µM
[25] = second compound 3.16 µM, first compound 0.0316 µM
[26] = second compound 3.16 µM, first compound 0.1 µM
[27] = second compound 3.16 µM, first compound 0.316 µM
[28] = second compound 3.16 µM, first compound 1 µM
[29] = second compound 3.16 µM, first compound 3.16 µM
[30] = second compound 3.16 µM, first compound 10 µM
[31] = second compound 10 µM, first compound 0.0316 µM
[32] = second compound 10 µM, first compound 0.1 µM
[33] = second compound 10 µM, first compound 0.316 µM
[34] = second compound 10 µM, first compound 1 µM
[35] = second compound 10 µM, first compound 3.16 µM
[36] = second compound 10 µM, first compound 10 µM

## COc1cccc2c1C(=O)c1c(O)c3c(c(O)c1C2=O)CC(O)(C(=O)CO)CC3OC1CC(N)C(O)C(C)O1 (centres undefined) + Cc1cnc(CNC(=O)c2c(=O)c3ccc(N4CCCN(C)CC4)nc3n3c2sc2ccccc23)cn1
Second compound 0.0316 µM
  IC50: 168 nM
Second compound 0.1 µM
  IC50: 56.2 nM
Second compound 0.316 µM
  IC50: < 31.6 nM
Second compound 1 µM
  IC50: < 31.6 nM
Second compound 3.16 µM
  IC50: < 31.6 nM
Second compound 10 µM
  IC50: < 31.6 nM
[1]
  viability, T/C: 109%
[2]
  viability, T/C: 64.1%
[3]
  viability, T/C: 31.2%
[4]
  viability, T/C: 20.5%
[5]
  viability, T/C: 1.64%
[6]
  viability, T/C: 0.08%
[7]
  viability, T/C: 59.3%
[8]
  viability, T/C: 38.7%
[9]
  viability, T/C: 30.2%
[10]
  viability, T/C: 17.9%
[11]
  viability, T/C: 1%
[12]
  viability, T/C: 0.06%
[13]
  viability, T/C: 41.5%
[14]
  viability, T/C: 33.4%
[15]
  viability, T/C: 27.4%
[16]
  viability, T/C: 16.1%
[17]
  viability, T/C: 0.21%
[18]
  viability, T/C: 0.08%
[19]
  viability, T/C: 37.1%
[20]
  viability, T/C: 30.9%
[21]
  viability, T/C: 27.4%
[22]
  viability, T/C: 15.2%
[23]
  viability, T/C: 0.07%
[24]
  viability, T/C: 0.09%
[25]
  viability, T/C: 33%
[26]
  viability, T/C: 31.4%
[27]
  viability, T/C: 24.5%
[28]
  viability, T/C: 14.9%
[29]
  viability, T/C: 0.12%
[30]
  viability, T/C: 0.13%
[31]
  viability, T/C: 25.6%
[32]
  viability, T/C: 24.9%
[33]
  viability, T/C: 20.4%
[34]
  viability, T/C: 13.7%
[35]
  viability, T/C: 0.21%
[36]
  viability, T/C: 0.22%

## Nc1ccn(C2OC(CO)C(O)C2(F)F)c(=O)n1 (centres undefined) + Cc1cnc(CNC(=O)c2c(=O)c3ccc(N4CCCN(C)CC4)nc3n3c2sc2ccccc23)cn1
Second compound 0.0316 µM
  IC50: < 31.6 nM
Second compound 0.1 µM
  IC50: < 31.6 nM
Second compound 0.316 µM
  IC50: < 31.6 nM
Second compound 1 µM
  IC50: < 31.6 nM
Second compound 3.16 µM
  IC50: < 31.6 nM
Second compound 10 µM
  IC50: < 31.6 nM
[1]
  viability, T/C: 22.9%
[2]
  viability, T/C: 10.1%
[3]
  viability, T/C: 10.4%
[4]
  viability, T/C: 10.4%
[5]
  viability, T/C: 8.9%
[6]
  viability, T/C: 7.49%
[7]
  viability, T/C: 23.4%
[8]
  viability, T/C: 10.8%
[9]
  viability, T/C: 9.94%
[10]
  viability, T/C: 10.3%
[11]
  viability, T/C: 9.17%
[12]
  viability, T/C: 7.13%
[13]
  viability, T/C: 22.3%
[14]
  viability, T/C: 12.7%
[15]
  viability, T/C: 9.56%
[16]
  viability, T/C: 11.4%
[17]
  viability, T/C: 10%
[18]
  viability, T/C: 7.6%
[19]
  viability, T/C: 28.3%
[20]
  viability, T/C: 14.9%
[21]
  viability, T/C: 13.3%
[22]
  viability, T/C: 13.8%
[23]
  viability, T/C: 12.5%
[24]
  viability, T/C: 7.97%
[25]
  viability, T/C: 29%
[26]
  viability, T/C: 20.9%
[27]
  viability, T/C: 18.9%
[28]
  viability, T/C: 14.1%
[29]
  viability, T/C: 11.8%
[30]
  viability, T/C: 6.29%
[31]
  viability, T/C: 24.9%
[32]
  viability, T/C: 22.1%
[33]
  viability, T/C: 19.1%
[34]
  viability, T/C: 14.6%
[35]
  viability, T/C: 10.9%
[36]
  viability, T/C: 2.89%
